The first test has as its system Ramos B-Cell Line Stimulated with IL-4 (JAK-1 and JAK-3 / Stat-6, CD23). As to the kind of experiment: Assay for Ramos B-Cell Line Stimulated with IL-4 (CD23 upregulation, FACS). In kind it is cell-based. Particulars: Homo sapiens, Ramos, human Ramos B cells, compound 1 hour, IL-4 50 units/mL for 20-24 hours, anti-CD23-PE FACS; read-out: Example 2 (IC50). From the text:
One means of assaying for such inhibition is detection of the effect of the 2,4-pyrimidinediamine compounds on the upregulation of downstream gene products. In the Ramos/IL4 assay, B-cells are stimulated with the cytokine Interleukin-4 (IL-4) leading to the activation of the JAK/Stat pathway through phosphorylation of the JAK family kinases, JAK1 and JAK3, which in turn phosphorylate and activate the transcription factor Stat-6. […] To study the effect of inhibitors (e.g., the 2,4-substituted pyrimindinediamine compounds described herein) on the JAK1 and JAK3 kinases, human Ramos B cells are stimulated with human IL-4. 20 to 24 hours post stimulation, cells are stained for upregulation of CD23 and analyzed using flow cytometry (FACS).
B-cells stimulated with cytokine Interleukin-4 (IL-4) activate the JAK/Stat pathway through phosphorylation of the JAK family kinases, JAK-1 and JAK-3, which in turn phosphorylate and activate the transcription factor Stat-6. […] To study the effect of inhibitors on the JAK family kinases, human Ramos B cells were stimulated with human IL-4.
Cells were maintained at a density of 3.5×10^5. The day before the experiment, Ramos B-cells were diluted to 3.5×10^5 cells/mL to ensure that they were in a logarithmic growth phase.
Cells were spun down and suspended in RPMI with 5% serum. 5×10^4 cells were used per point in a 96-well tissue culture plate. Cells were pre-incubated with compound or DMSO (Sigma-Aldrich, St. Louis, Mo., Cat No. D2650) vehicle control for 1 hour in a 37° C. incubator. Cells were then stimulated with IL-4 (Peprotech Inc., Rocky Hill, N.J., Cat No. 200-04) for a final concentration of 50 units/mL for 20-24 hours. […] Detection was performed using a BD LSR I System Flow Cytometer, purchased from Becton Dickinson Biosciences of San Jose, Calif.
Turning to `N#CCOc1ccc(Nc2nc(Nc3ccc(C#N)cc3)ncc2F)cc1` [Compound I-29, N2-(4-Cyanophenyl)-N4-(4-cyanomethoxyphenyl)-5-fluoro-2,4-pyrimidinediamine], the IC50 (as a rule, the concentration that inhibits the measured activity by half) is 74.6 nM. Take `N#CCOc1ccc(Nc2nc(Nc3cccc(C#N)c3)ncc2F)cc1` [Compound I-30, N4-(4-Cyanomethoxyphenyl)-N2-(3-cyanophenyl)-5-fluoro-2,4-pyrimidinediamine]: the IC50 amounted to 71 nM.

Consider `NC(=O)COc1cccc(Nc2nc(Nc3ccc(C(N)=O)cc3)ncc2F)c1` [Compound I-32, N4-(3-Aminocarbonylmethoxyphenyl)-N2-(4-aminocarbonylphenyl)-5-fluoro-2,4-pyrimidinediamine], for which the IC50 was 184 nM. Take `NC(=O)COc1cccc(Nc2nc(Nc3cccc(C(N)=O)c3)ncc2F)c1` [Compound I-33, N4-(3-Aminocarbonylmethoxyphenyl)-N2-(3-aminocarbonylphenyl)-5-fluoro-2,4-pyrimidinediamine]: the IC50 came out at 3050 nM. Consider `N#Cc1ccc(Nc2ncc(F)c(Nc3cccc(OCC(N)=O)c3)n2)cc1` [Compound I-34, N4-(3-Aminocarbonylmethoxyphenyl)-N2-(4-cyanophenyl)-5-fluoro-2,4-pyrimidinediamine], for which the IC50 was determined as 1250 nM.

Consider `N#Cc1cccc(Nc2ncc(F)c(Nc3cccc(OCC(N)=O)c3)n2)c1` [Compound I-35, N4-(3-Aminocarbonylmethoxyphenyl)-N2-(3-cyanophenyl)-5-fluoro-2,4-pyrimidinediamine], for which the IC50 was found to be 326 nM. With `CN1CCN(C(=O)c2ccc(Nc3ncc(F)c(Nc4ccc(OCC(N)=O)cc4)n3)cc2)CC1` [Compound I-36, N4-(4-Aminocarbonylmethoxyphenyl)-5-fluoro-N2-[4-((4-methylpiperazin-1-yl)carbonyl)phenyl]-2,4-pyrimidinediamine], the IC50 stood at 3020 nM. Take `CN1CCN(C(=O)c2cccc(Nc3ncc(F)c(Nc4ccc(OCC(N)=O)cc4)n3)c2)CC1` [Compound I-37, N4-(4-Aminocarbonylmethoxyphenyl)-5-fluoro-N2-[3-((4-methylpiperazin-1-yl)carbonyl)phenyl]-2,4-pyrimidinediamine]: the IC50 is 2240 nM.

On to `CN1CCN(c2ccc(Nc3ncc(F)c(Nc4ccc(OCC(N)=O)cc4)n3)cc2C(N)=O)CC1` [Compound I-38, N2-[3-Aminocarbonyl-4-(4-methylpiperazin-1-yl)phenyl]-N4-(4-aminocarbonylmethoxyphenyl)-5-fluoro-2,4-pyrimidinediamine], for which the IC50 stood at 533 nM. For `CNC(=O)c1cc(Nc2ncc(F)c(Nc3ccc(OCC(N)=O)cc3)n2)ccc1N1CCN(C)CC1` [Compound I-39, N4-(4-Aminocarbonylmethoxyphenyl)-5-fluoro-N2-[3-methylaminocarbonyl-4-(4-methylpiperazin-1-yl)phenyl]-2,4-pyrimidinediamine], the IC50 was 431 nM. `CN1CCN(c2ccc(Nc3ncc(F)c(Nc4ccc(OCC#N)cc4)n3)cc2C(N)=O)CC1` [Compound I-42, N2-[3-Aminocarbonyl-4-(4-methylpiperazin-1-yl)phenyl]-N4-(4-cyanomethoxyphenyl)-5-fluoro-2,4-pyrimidinediamine]: the IC50 came to 14 nM. With `CNC(=O)c1cc(Nc2ncc(F)c(Nc3ccc(OCC#N)cc3)n2)ccc1N1CCN(C)CC1` [Compound I-43, N4-(4-Cyanomethoxyphenyl)-5-fluoro-N2-[3-methylaminocarbonyl-4-(4-methylpiperazin-1-yl)phenyl]-2,4-pyrimidinediamine], the IC50 was 3.56 nM. Still for that read-out and setting: the same measure for `N#CCOc1cccc(Nc2nc(Nc3cccc(C(N)=O)c3)ncc2F)c1` [Compound I-45, N2-(3-Aminocarbonylphenyl)-N4-(3-cyanomethoxyphenyl)-5-fluoro-2,4-pyrimidinediamine]: 426 nM. With `N#CCOc1cccc(Nc2nc(Nc3ccc(C#N)cc3)ncc2F)c1` [Compound I-46, N4-(3-Cyanomethoxyphenyl)-N2-(4-cyanophenyl)-5-fluoro-2,4-pyrimidinediamine], the IC50 came to 1470 nM. Same read-out and setting: the same measure for `N#CCOc1cccc(Nc2nc(Nc3cccc(C#N)c3)ncc2F)c1` [Compound I-47, N4-(3-Cyanomethoxyphenyl)-N2-(3-cyanophenyl)-5-fluoro-2,4-pyrimidinediamine]: 173 nM; for `CN1CCN(C(=O)c2ccc(Nc3ncc(F)c(Nc4cccc(OCC(N)=O)c4)n3)cc2)CC1` [Compound I-48, N4-(3-Aminocarbonylmethoxyphenyl)-5-fluoro-N2-[4-((4-methylpiperazin-1-yl)carbonyl)phenyl]-2,4-pyrimidinediamine]: 913 nM; for `CN1CCN(c2ccc(Nc3ncc(F)c(Nc4cccc(OCC(N)=O)c4)n3)cc2C(N)=O)CC1` [Compound I-50, N4-(3-Aminocarbonylmethoxyphenyl)-N2-[3-aminocarbonyl-4-(4-methylpiperazin-1-yl)phenyl]-5-fluoro-2,4-pyrimidinediamine]: 182 nM.

In the case of `CNC(=O)c1cc(Nc2ncc(F)c(Nc3cccc(OCC(N)=O)c3)n2)ccc1N1CCN(C)CC1` [Compound I-51, N4-(3-Aminocarbonylmethoxyphenyl)-5-fluoro-N2-[3-methylaminocarbonyl-4-(4-methylpiperazin-1-yl)phenyl]-2,4-pyrimidinediamine], the IC50 stood at 357 nM. As to `CN1CCN(c2ccc(Nc3ncc(F)c(Nc4cccc(OCC#N)c4)n3)cc2C(N)=O)CC1` [Compound I-54, N2-[3-Aminocarbonyl-4-(4-methylpiperazin-1-yl)phenyl]-N4-(3-cyanomethoxyphenyl)-5-fluoro-2,4-pyrimidinediamine], the IC50 amounted to 19.1 nM. For `CNC(=O)c1cc(Nc2ncc(F)c(Nc3cccc(OCC#N)c3)n2)ccc1N1CCN(C)CC1` [Compound I-55, N4-(3-Cyanomethoxyphenyl)-5-fluoro-N2-[3-methylaminocarbonyl-4-(4-methylpiperazin-1-yl)phenyl]-2,4-pyrimidinediamine], the IC50 was 38.4 nM.

Turning to `Cc1nc(COc2ccc(Nc3nc(Nc4ccc(C(N)=O)cc4)ncc3F)cc2)no1` [Compound I-56, N2-(4-Aminocarbonylphenyl)-5-fluoro-N4-[4-((5-methyl-1,2,4-oxadiazol-3-yl)methoxy)phenyl]-2,4-pyrimidinediamine], the IC50 was found to be 91.4 nM. In the case of `Cc1nc(COc2ccc(Nc3nc(Nc4cccc(C(N)=O)c4)ncc3F)cc2)no1` [Compound I-57, N2-(3-Aminocarbonylphenyl)-5-fluoro-N4-[4-((5-methyl-1,2,4-oxadiazol-3-yl)methoxy)phenyl]-2,4-pyrimidinediamine], the IC50 was found to be 292 nM. Turning to `Cc1nc(COc2ccc(Nc3nc(Nc4ccc(C#N)cc4)ncc3F)cc2)no1` [Compound I-58, N2-(4-Cyanophenyl)-5-fluoro-N4-[4-((5-methyl-1,2,4-oxadiazol-3-yl)methoxy)phenyl]-2,4-pyrimidinediamine], the IC50 stood at 967 nM.

On to `Cc1nc(COc2ccc(Nc3nc(Nc4cccc(C#N)c4)ncc3F)cc2)no1` [Compound I-59, N2-(3-Cyanophenyl)-5-fluoro-N4-[4-((5-methyl-1,2,4-oxadiazol-3-yl)methoxy)phenyl]-2,4-pyrimidinediamine], for which the IC50 was 596 nM.

Staying with this test, now noted: human Ramos B cells, compound 1 hour, IL-4 50 units/mL for 20-24 hours, anti-CD23-PE FACS; read-out: Example 2 (IC50).
Turning to `CN1CCN(C(=O)c2cccc(Nc3ncc(F)c(Nc4ccc(OCC#N)cc4)n3)c2)CC1` [Compound I-40], the IC50 was 567 nM. In the case of `CN1CCN(C(=O)c2ccc(Nc3ncc(F)c(Nc4cccc(OCC(N)=O)c4)n3)cc2)CC1` [Compound I-49, N4-(3-Aminocarbonylmethoxyphenyl)-5-fluoro-N2-[4-((4-methylpiperazin-1-yl)carbonyl)phenyl]-2,4-pyrimidinediamine], the IC50 was 2290 nM. `CN1CCN(C(=O)c2ccc(Nc3ncc(F)c(Nc4cccc(OCC#N)c4)n3)cc2)CC1` [Compound I-52, N4-(3-Cyanomethoxyphenyl)-5-fluoro-N2-[4-((4-methylpiperazin-1-yl)carbonyl)phenyl]-2,4-pyrimidinediamine]: the IC50 turned out to be 289 nM. Regarding `CN1CCN(C(=O)c2ccc(Nc3ncc(F)c(Nc4cccc(OCC#N)c4)n3)cc2)CC1` [Compound I-53, N4-(3-Cyanomethoxyphenyl)-5-fluoro-N2-[4-((4-methylpiperazin-1-yl)carbonyl)phenyl]-2,4-pyrimidinediamine], the IC50 is 1420 nM. For the compound `Cc1nc(COc2ccc(Nc3nc(Nc4ccc(C(=O)N5CCN(C)CC5)cc4)ncc3F)cc2)no1` [Compound I-60, 5-Fluoro-N4-[4-((5-methyl-1,2,4-oxadiazol-3-yl)methoxy)phenyl]-N2-[4-((4-methylpiperazin-1-yl)carbonyl)phenyl]-2,4-pyrimidinediamine], the IC50 turned out to be 421 nM.

For `Cc1nc(COc2ccc(Nc3nc(Nc4ccc(C(=O)N5CCN(C)CC5)cc4)ncc3F)cc2)no1` [Compound I-61, 5-Fluoro-N4-[4-((5-methyl-1,2,4-oxadiazol-3-yl)methoxy)phenyl]-N2-[4-((4-methylpiperazin-1-yl)carbonyl)phenyl]-2,4-pyrimidinediamine], the IC50 turned out to be 898 nM.

(Values after patent US7834024B2, “Compositions and methods for inhibition of the JAK pathway” (Rigel Pharmaceuticals, Inc., priority 2007, dated 2010).)
